Laboratory results: patent EP4603105A1, “PHARMACEUTICAL COMPOSITION CONTAINING CYCLIC COMPOUND HAVING SELECTIVE KRAS INHIBITORY EFFECT AGAINST HRAS AND NRAS” (CHUGAI SEIYAKU KABUSHIKI KAISHA, priority 2022, dated 2024)
Like-named read-outs stand apart in the source and are kept apart here.

What was measured:
[1] = biological target: GDP-bound KRAS wild-type protein (Homo sapiens, UniProt P01116); assay: Binding to KRAS by surface plasmon resonance (SPR), dissociation constant KD
Method in brief: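 Biotinylated GDP-bound RAS was captured at about 100–300 RU. Running buffer: HBS pH 7.4, 10 mM MgCl2, 10 µM GDP, 1 mM DTT, 0.01% Tween 20, 4% DMSO.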

[2] = system: human lung cancer strain NCI-H441; assay: NCI-H441 cell proliferation inhibitory activity (CellTiter-Glo, 4 days); assay type: cell-based; settings: read-out: NCl-H441 IC50
Method in brief: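 Signal came from […] measured per well once the reagent was added. Beforehand, cells were cultured at 37°C and 5% carbon dioxide on a compound series serially diluted in dimethyl sulfoxide.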

HRAS wild-type protein = HRAS wild-type protein (Homo sapiens, UniProt P01112); assay: Binding to HRAS by surface plasmon resonance (SPR), KD and KD ratio to KRAS
Method in brief: (§1)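 Each cycle, GDP-bound biotin-Avi RAS was captured (~100–300 RU), compound concentrations were injected low to high for 75 s each at 100 µL/min, then the chip was regenerated. Buffer: HBS pH 7.4, 10 mM MgCl2, 10 µM GDP, 1 mM DTT, 4% DMSO; 30°C. KD from a 1:1 binding model.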

[3] = biological target: GDP-bound NRAS wild-type protein (Homo sapiens, UniProt P01111); assay: Binding to NRAS by surface plasmon resonance (SPR), KD and KD ratio to KRAS
Method in brief: as §1

[4] = Single Cycle Kinetics, 1:1 binding model
[5] = 50% proliferation inhibitory concentration, four days
[6] = ratio of KD with respect to HRAS wild-type protein to KD with respect to KRAS
[7] = ratio of KD with respect to GDP-bound NRAS wild-type protein to KD with respect to KRAS
[8] = ratio of KD for HRAS wild-type protein to KD for KRAS
[9] = ratio of KD for GDP-bound NRAS wild-type protein to KD for KRAS

GDP-bound NRAS wild-type protein, sequence (P01111 whole entry): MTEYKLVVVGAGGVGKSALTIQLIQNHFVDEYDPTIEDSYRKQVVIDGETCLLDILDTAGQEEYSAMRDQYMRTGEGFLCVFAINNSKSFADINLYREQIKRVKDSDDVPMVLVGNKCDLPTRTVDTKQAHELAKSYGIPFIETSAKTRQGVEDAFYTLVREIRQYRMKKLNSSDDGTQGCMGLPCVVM
HRAS wild-type protein, sequence (P01112 whole entry): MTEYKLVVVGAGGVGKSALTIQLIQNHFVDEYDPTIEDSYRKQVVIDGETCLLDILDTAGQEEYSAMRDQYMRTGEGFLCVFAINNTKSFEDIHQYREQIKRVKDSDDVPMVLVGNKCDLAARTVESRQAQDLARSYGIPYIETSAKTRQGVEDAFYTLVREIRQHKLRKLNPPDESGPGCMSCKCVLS
GDP-bound KRAS wild-type protein, sequence (P01116 1-188 isoform P01116-2): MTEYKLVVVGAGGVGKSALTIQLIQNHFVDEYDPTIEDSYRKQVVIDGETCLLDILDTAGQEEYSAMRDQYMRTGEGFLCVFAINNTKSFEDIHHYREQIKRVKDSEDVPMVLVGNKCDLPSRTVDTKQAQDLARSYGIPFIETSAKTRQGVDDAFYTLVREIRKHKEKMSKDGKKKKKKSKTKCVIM

Compound | Kd [1, 4] | IC50 [2, 5] | HRAS /KRAS (HRAS wild-type protein; [6]) | NRAS /KRAS [3, 7] | Kd ([1]; 1:1 binding model) | IC50 ([2]; NCI-H441 cells, 4 days) | HRAS /KRAS (HRAS wild-type protein; [8]) | NRAS /KRAS [3, 9] | Kd ([1]; Single Cycle Kinetics)
CC[C@H](C)[C@@H]1NC(=O)[C@H](CC2CCC2)N(C)C(=O)C[C@@H](C(=O)N(C)C)N(C)C(=O)[C@H](C2CCCC2)N(C)C(=O)C2(CCCC2)NC(=O)[C@@H]2CCCN2C(=O)[C@H](CCc2ccc(C(F)(F)F)c(Cl)c2)NC(=O)CN(C)C(=O)[C@H](Cc2ccc(C(F)(F)F)cc2)N2C[C@H](C)CC[C@@H](C2=O)N(C)C(=O)CN(C)C1=O [PP1342] | 0.091 nM | 5 nM | B (a compound having 3 or more and less than 10 is denoted as B) | B (a compound having 3 or more and less than 10 is denoted as B) | – | – | – | – | –
CCO[C@@H]1C[C@H]2C(=O)NC3(CCC3)C(=O)N(C)[C@@H](C3CCCC3)C(=O)N(C)[C@H](C(=O)N3CCOCC3)CC(=O)N(C)[C@@H](CC)C(=O)N[C@@H]([C@@H](C)CC)C(=O)N(C)CC(=O)N(C)[C@H]3CC[C@@H](C)CN(C3=O)[C@@H](Cc3ccc(C(F)(F)F)cc3)C(=O)N(C)CC(=O)N[C@@H](CCc3ccc(C(F)(F)F)c(Cl)c3)C(=O)N2C1 [PP1378] | 0.081 nM | 6.6 nM | C (A compound having a KD ratio of 0.1 or more and less than 3 is denoted as C) | B (a compound having 3 or more and less than 10 is denoted as B) | – | – | – | – | –
CCO[C@@H]1C[C@H]2C(=O)NC3(CCCC3)C(=O)N(C)[C@@H](C(CC)CC)C(=O)N(C)[C@H](C(=O)N3CCCC3)CC(=O)N(C)[C@@H](COC)C(=O)N[C@@H]([C@@H](C)CC)C(=O)N(C)CC(=O)N(C)[C@H]3C/C=C\CCN(C3=O)[C@@H](CC3CCC(F)(F)CC3)C(=O)N(C)CC(=O)N[C@@H](CCc3cc(F)c(C(F)(F)F)c(F)c3)C(=O)N2C1 [PP1441] | 0.7 nM | 87.6 nM | A (a compound having 10 or more and less than 20 is denoted as A) | A (a compound having 10 or more and less than 20 is denoted as A) | – | – | – | – | –
CCC[C@H]1C(=O)N[C@@H]([C@@H](C)CC)C(=O)N2CCC[C@H]2C(=O)N(C)[C@H]2C/C=C\CCN(C2=O)[C@@H](Cc2ccc(C)cc2)C(=O)N(C)CC(=O)N[C@@H](CCc2ccc(Cl)c(Cl)c2)C(=O)N2C[C@H](OC(C)C)C[C@H]2C(=O)NC2(CC(C)(C)C2)C(=O)N(C)[C@@H](C(CC)CC)C(=O)N(C)[C@H](C(=O)N(C)C)CC(=O)N1C [PP2641] | – | – | – | – | 2 nM | 98.6 nM | A (a compound having 10 or more and less than 20 is denoted as A) | AA (a compound having 20 or more is denoted as AA) | –
CCO[C@@H]1C[C@H]2C(=O)NC3(CCC3)C(=O)N(C)[C@@H](C3CCCC3)C(=O)N(C)[C@H](C(=O)N(C)C)CC(=O)N(C)[C@@H](Cc3ccccc3C#N)C(=O)N[C@@H]([C@@H](C)CC)C(=O)N(C)CC(=O)N(C)[C@H]3CCCCCN(C3=O)[C@@H](Cc3ccc(F)cc3)C(=O)N(C)CC(=O)N[C@@H](CCc3cc(F)c(C(F)(F)F)c(F)c3)C(=O)N2C1 [PP1155] | 0.15 nM | 73.1 nM | B (a compound having 3 or more and less than 10 is denoted as B) | B (a compound having 3 or more and less than 10 is denoted as B) | – | – | – | – | –
CCCO[C@@H]1C[C@H]2C(=O)NC3(CC(C)(C)C3)C(=O)N(C)[C@@H](C3CCCC3)C(=O)N(C)[C@H](C(=O)N(C)CC)CC(=O)N(C)[C@@H](COCC)C(=O)N[C@@H]([C@@H](C)CC)C(=O)N(C3CC3)CC(=O)N(C)[C@H]3C/C=C\CCN(C3=O)[C@@H](Cc3ccc(C(F)(F)F)cc3)C(=O)N(C)CC(=O)N[C@@H](CCc3ccc(C(F)(F)F)c(OC)c3)C(=O)N2C1 [PP3411] | – | – | – | – | – | 25.8 nM | A (a compound having 10 or more and less than 20 is denoted as A) | A (a compound having 10 or more and less than 20 is denoted as A) | 0.72 nM
CCCO[C@H](C)[C@@H]1NC(=O)[C@H](COCC)N(C)C(=O)C[C@@H](C(=O)N(C)CC)N(C)C(=O)[C@H](C2CCCC2)N(C)C(=O)C2(CC(C)(C)C2)NC(=O)[C@@H]2C[C@H](C)CN2C(=O)[C@H](CCc2ccc(C(F)(F)F)c(OC)c2)NC(=O)CN(C)C(=O)[C@H](Cc2ccc(C)cc2)N2CC/C=C\C[C@@H](C2=O)N(C)C(=O)CN(C)C1=O [PP2425] | – | – | – | – | 0.23 nM | 51.7 nM | A (a compound having 10 or more and less than 20 is denoted as A) | AA (a compound having 20 or more is denoted as AA) | –
CCCN(C)C(=O)[C@@H]1CC(=O)N(C)[C@@H](CC(C)C)C(=O)N[C@@H]([C@@H](C)CC)C(=O)N(C)CC(=O)N(C)[C@H]2C/C=C\CCN(C2=O)[C@@H](Cc2ccc(C(F)(F)F)cc2)C(=O)N(C)CC(=O)N[C@@H](CCc2cc(F)c(C(F)(F)F)c(F)c2)C(=O)N2C[C@H](OCC)C[C@H]2C(=O)N[C@]2(C[C@H](OC)C2)C(=O)N(C)[C@@H](C2CCCC2)C(=O)N1C [PP3353] | – | – | – | – | – | 14.1 nM | A (a compound having 10 or more and less than 20 is denoted as A) | A (a compound having 10 or more and less than 20 is denoted as A) | 0.17 nM
CCO[C@@H]1C[C@H]2C(=O)NC(C)(C)C(=O)N(C)[C@@H](C3CCCC3)C(=O)N(C)[C@H](C(=O)N(C)C)CC(=O)N(C)[C@@H](CC(C)C)C(=O)N[C@@H]([C@@H](C)CC)C(=O)N(C)CC(=O)N(C)[C@H]3C/C(F)=C\CCN(C3=O)[C@@H](Cc3ccc(C)cc3)C(=O)N(C)CC(=O)N[C@@H](CCc3cc(F)c(C(F)(F)F)c(F)c3)C(=O)N2C1 [PP3523] | – | – | – | – | – | 23.9 nM | B (a compound having 3 or more and less than 10 is denoted as B) | B (a compound having 3 or more and less than 10 is denoted as B) | 0.59 nM
CCO[C@@H]1C[C@H]2C(=O)NC3(CC(C)(C)C3)C(=O)N(C)[C@@H](C(CC)CC)C(=O)N(C)[C@H](C(=O)N(C)C)CC(=O)N(C)[C@@H](COC)C(=O)N[C@@H]([C@@H](C)CC)C(=O)N(C)CC(=O)N(C)[C@H]3C/C=C\CCN(C3=O)[C@@H](CC3CCCCC3)C(=O)N(C)CC(=O)N[C@@H](CCc3ccc(C(F)(F)F)c(Cl)c3)C(=O)N2C1 [PP2468] | – | – | – | – | 1.3 nM | 72.2 nM | A (a compound having 10 or more and less than 20 is denoted as A) | AA (a compound having 20 or more is denoted as AA) | –
CC[C@H](C)[C@@H]1NC(=O)[C@H](COC)N(C)C(=O)C[C@@H](C(=O)N(C)C)N(C)C(=O)[C@H](C2CCCC2)N(C)C(=O)C2(CC(C)(C)C2)NC(=O)[C@@H]2C[C@@H](OC3CCC3)CN2C(=O)[C@H](CCc2cc(F)c(C(F)(F)F)c(F)c2)NC(=O)CN(C)C(=O)[C@H](CC2CCCCC2)N2CC/C=C\C[C@@H](C2=O)N(C)C(=O)CN(C2CC2)C1=O [PP2618] | – | – | – | – | 1.4 nM | 69.5 nM | A (a compound having 10 or more and less than 20 is denoted as A) | A (a compound having 10 or more and less than 20 is denoted as A) | –
CCCCCC[C@H]1C(=O)N[C@@H]([C@@H](C)CC)C(=O)N(C)CC(=O)N(C)[C@H]2C/C=C\CCN(C2=O)[C@@H](Cc2ccc(C(F)(F)F)cc2)C(=O)N(C)CC(=O)N[C@@H](CCc2ccc3sccc3c2)C(=O)N2C[C@H](OCC)C[C@H]2C(=O)NC2(CCC2)C(=O)N(C)[C@@H](C2CCCC2)C(=O)N(C)[C@H](C(=O)N(C)C)CC(=O)N1C [PP1259] | 0.49 nM | 62 nM | A (a compound having 10 or more and less than 20 is denoted as A) | A (a compound having 10 or more and less than 20 is denoted as A) | – | – | – | – | –
CC[C@H](C)[C@@H]1NC(=O)[C@H](CC)N(C)C(=O)C[C@@H](C(=O)N(C)C)N(C)C(=O)[C@H](C2CCCC2)N(C)C(=O)C2(CCC2)NC(=O)[C@@H]2C[C@H](C)CN2C(=O)[C@H](CCc2cc(F)c(C(F)(F)F)c(F)c2)NC(=O)CN(C)C(=O)[C@H](Cc2ccc(C(F)(F)F)cc2)N2CC/C=C\C[C@@H](C2=O)N(C)C(=O)CN(C)C1=O [PP1134] | 0.06 nM | 20 nM | B (a compound having 3 or more and less than 10 is denoted as B) | A (a compound having 10 or more and less than 20 is denoted as A) | – | – | – | – | –
CCC[C@H]1C(=O)N[C@@H]([C@@H](C)CC)C(=O)N(C)CC(=O)N(C)[C@H]2C/C=C\CCN(C2=O)[C@@H](Cc2ccc(C)cc2)C(=O)N(C)CC(=O)N[C@@H](CCc2cc(F)c(C(F)(F)F)c(F)c2)C(=O)N2CC3(CC3)C[C@H]2C(=O)N(C)C2(CCC2)C(=O)N(C)[C@@H](CC(C)(C)C)C(=O)N(C)[C@H](C(=O)N(C)C)CC(=O)N1C [PP3333] | – | – | – | – | – | 4.5 nM | B (a compound having 3 or more and less than 10 is denoted as B) | B (a compound having 3 or more and less than 10 is denoted as B) | 0.019 nM
CCO[C@@H]1C[C@H]2C(=O)NC3(CCC3)C(=O)N(C)[C@@H](C(CC)CC)C(=O)N(C)[C@H](C(=O)N(C)C)CC(=O)N(C)[C@@H](C)C(=O)N[C@@H]([C@@H](C)CC)C(=O)N(C)CC(=O)N(C)[C@H]3C/C=C\CCN(C3=O)[C@@H](Cc3ccc(C(F)(F)F)cc3)C(=O)N(C)CC(=O)N[C@@H](CCc3ccc(Cl)c(Cl)c3)C(=O)N2C1 [PP1214] | 0.34 nM | 93.4 nM | A (a compound having 10 or more and less than 20 is denoted as A) | AA (a compound having 20 or more is denoted as AA) | – | – | – | – | –
